Source: US20160250213A1, “FORMULATIONS OF AZAINDOLE COMPOUNDS” (priority 2013, published 2016)
Counter-ions that a name gives are not always drawn. Like-named read-outs stand apart in the source and are kept apart here.

How the values were obtained:
[1] = physchem; details: water, thermodynamic from solid
[2] = Water activity tests: competition slurry in IPA/water mixtures; type: physicochemical
[3] = Hydrate formation of free base versus humidity / water activity; type: physicochemical; details: ambient temperature
[4] = solvent Acetonitrile, ambient temperature, listed as Form A HCl salt of Compound (1)
[5] = solvent Chloroform, ambient temperature, listed as Form A HCl salt of Compound (1)
[6] = solvent Cyclohexane, ambient temperature
[7] = solvent Dimethylsulfoxide, ambient temperature, listed as Form A HCl salt of Compound (1)
[8] = solvent Ethylene glycol, ambient temperature
[9] = solvent Formic acid, ambient temperature, listed as Form A HCl salt of Compound (1)
[10] = solvent Hexane, ambient temperature
[11] = solvent Methanol, ambient temperature
[12] = solvent Methylcyclohexane, ambient temperature
[13] = solvent Tetralin, ambient temperature
[14] = solvent 1,4-Dioxane, ambient temperature
[15] = solvent 1-Pentanol, ambient temperature
[16] = solvent 1-Propanol, ambient temperature
[17] = solvent 2-Butanol, ambient temperature
[18] = solvent 2-Ethoxyethanol, ambient temperature
[19] = solvent 2-Methoxyethanol, ambient temperature
[20] = solvent 2-Propanol, ambient temperature
[21] = solvent Acetone, ambient temperature
[22] = solvent Dimethylsulfoxide, ambient temperature
[23] = solvent Ethanol, ambient temperature
[24] = solvent Formic acid, ambient temperature
[25] = solvent Methyl acetate, ambient temperature
[26] = solvent Methyl tetrahydrofuran, ambient temperature
[27] = solvent Methylethyl ketone, ambient temperature
[28] = solvent N,N-Dimethylacetamide, ambient temperature
[29] = solvent N,N-Dimethylformamide, ambient temperature
[30] = solvent Tetrahydrofuran, ambient temperature
[31] = solvent t-Butylmethylether, ambient temperature
[32] = solvent xylene, ambient temperature

SMILES: O=C(O)[C@H]1C2CCC(CC2)C1Nc1nc(-c2c[nH]c3ncc(F)cc23)ncc1F (stereo partly shown) [Form A of HCl salt of Compound (1).½H2O]
- Sol. (solvent 1,1,2-Trichloroethane, ambient temperature, listed as Form A HCl salt of Compound (1)): <0.1 mg/mL
- Sol. (solvent 1,2-Dichloroethane, ambient temperature, listed as Form A HCl salt of Compound (1)): 1.7 mg/mL
- Sol. (solvent 1,2-Dimethoxyethane, ambient temperature, listed as Form A HCl salt of Compound (1)): 0.5 mg/mL
- Sol. (solvent 1,4-Dioxane, ambient temperature, listed as Form A HCl salt of Compound (1)): 0.4 mg/mL
- Sol. (solvent 1-Butanol, ambient temperature, listed as Form A HCl salt of Compound (1)): 2.9 mg/mL
- Sol. (solvent 1-Pentanol, ambient temperature, listed as Form A HCl salt of Compound (1)): 3.3 mg/mL
- Sol. (solvent 1-Propanol, ambient temperature, listed as Form A HCl salt of Compound (1)): 10.7 mg/mL
- Sol. (solvent 2-Butanol, ambient temperature, listed as Form A HCl salt of Compound (1)): 2.9 mg/mL
- Sol. (solvent 2-Methoxyethanol, ambient temperature, listed as Form A HCl salt of Compound (1)): 34.1 mg/mL
- Sol. (solvent 2-Methy-1-propanol, ambient temperature, listed as Form A HCl salt of Compound (1)): 3.5 mg/mL
- Sol. (solvent 2-Propanol, ambient temperature, listed as Form A HCl salt of Compound (1)): 3.3 mg/mL
- Sol. (solvent 3-Methyl-1-butanol, ambient temperature, listed as Form A HCl salt of Compound (1)): 3.2 mg/mL
- Sol. (solvent Acetone, ambient temperature, listed as Form A HCl salt of Compound (1)): 1.5 mg/mL
- Resulting Form [4]: Solvate
- Sol. [4]: 0.5 mg/mL
- Sol. (solvent Anisole, ambient temperature, listed as Form A HCl salt of Compound (1)): <0.1 mg/mL
- Sol. (solvent Butyl acetate, ambient temperature, listed as Form A HCl salt of Compound (1)): 0.2 mg/mL
- Sol. (solvent Chlorobenzene, ambient temperature, listed as Form A HCl salt of Compound (1)): <0.1 mg/mL
- Resulting Form [5]: Solvate
- Sol. [5]: <0.1 mg/mL
- Sol. (solvent Cumene, ambient temperature, listed as Form A HCl salt of Compound (1)): <0.1 mg/mL
- Sol. [6]: <0.1 mg/mL
- Sol. (solvent Dichloromethane, ambient temperature, listed as Form A HCl salt of Compound (1)): 0.1 mg/mL
- Resulting Form [7]: Solvate
- Sol. [7]: 346.5 mg/mL
- Sol. (solvent Ethanol, ambient temperature, listed as Form A HCl salt of Compound (1)): 19.9 mg/mL
- Sol. (solvent Ethyl acetate, ambient temperature, listed as Form A HCl salt of Compound (1)): 0.2 mg/mL
- Sol. (solvent Ethyl ether, ambient temperature, listed as Form A HCl salt of Compound (1)): 0.1 mg/mL
- Sol. (solvent Ethyl formate, ambient temperature, listed as Form A HCl salt of Compound (1)): 0.4 mg/mL
- Resulting Form [8]: Solvate
- Sol. (solvent Ethylene glycol, ambient temperature, listed as Form A HCl salt of Compound (1)): 108.1 mg/mL
- Resulting Form [9]: Solvate
- Sol. [9]: 214.0 mg/mL
- Sol. (solvent Heptane, ambient temperature, listed as Form A HCl salt of Compound (1)): <0.1 mg/mL
- Sol. [10]: <0.1 mg/mL
- Sol. (solvent Isobutyl acetate, ambient temperature, listed as Form A HCl salt of Compound (1)): 0.2 mg/mL
- Sol. (solvent Isopropyl acetate, ambient temperature, listed as Form A HCl salt of Compound (1)): 0.4 mg/mL
- Resulting Form [11]: Solvate
- Sol. (solvent Methanol, ambient temperature, listed as Form A HCl salt of Compound (1)): 46.4 mg/mL
- Sol. (solvent Methyl acetate, ambient temperature, listed as Form A HCl salt of Compound (1)): 0.6 mg/mL
- Sol. (solvent Methyl tetrahydrofuran, ambient temperature, listed as Form A HCl salt of Compound (1)): 0.7 mg/mL
- Sol. (solvent Methylbutyl ketone, ambient temperature, listed as Form A HCl salt of Compound (1)): 0.4 mg/mL
- Sol. [12]: <0.1 mg/mL
- Sol. (solvent Methylethyl ketone, ambient temperature, listed as Form A HCl salt of Compound (1)): 0.5 mg/mL
- Sol. (solvent Nitromethane, ambient temperature, listed as Form A HCl salt of Compound (1)): <0.1 mg/mL
- Sol. (solvent Pentane, ambient temperature, listed as Form A HCl salt of Compound (1)): <0.1 mg/mL
- Sol. (solvent Propyl acetate, ambient temperature, listed as Form A HCl salt of Compound (1)): 0.8 mg/mL
- Sol. (solvent Tetrahydrofuran, ambient temperature, listed as Form A HCl salt of Compound (1)): 0.7 mg/mL
- Sol. [13]: <0.1 mg/mL
- Sol. (solvent Toluene, ambient temperature, listed as Form A HCl salt of Compound (1)): <0.1 mg/mL
- stability in solvent systems (solvent systems listed in b317 (chlorobenzene to methyl tetrahydrofuran), ambient temperature, 2 weeks): stable
- Sol. (solvent t-Butylmethylether, ambient temperature, listed as Form A HCl salt of Compound (1)): 0.4 mg/mL
- Sol. (solvent xylene, ambient temperature, listed as Form A HCl salt of Compound (1)): <0.1 mg/mL
- solubility thermodynamic [1]: 600 µg/mL
- form conversion in competition slurry [2]: converted to Form F

SMILES: O=C(O)[C@H]1C2CCC(CC2)C1Nc1nc(-c2c[nH]c3ncc(F)cc23)ncc1F (stereo partly shown) [Form A free base Compound (1)]
- Sol. (solvent 1,1,2-Trichloroethane, ambient temperature): 1.0 mg/mL
- Sol. (solvent 1,2-Dichloroethane, ambient temperature): 0.4 mg/mL
- Sol. (solvent 1,2-Dimethoxyethane, ambient temperature): 114.0 mg/mL
- Resulting Form [14]: Solvate (1:1)
- Sol. [14]: 21.3 mg/mL
- Sol. (solvent 1-Butanol, ambient temperature): 21.0 mg/mL
- Resulting Form [15]: No signal
- Sol. [15]: 14.5 mg/mL
- Resulting Form [16]: Solvate
- Sol. [16]: 15.9 mg/mL
- Resulting Form [17]: Solvate (1:1)
- Sol. [17]: 14.0 mg/mL
- Resulting Form [18]: Amorphous
- Sol. [18]: >113 mg/mL
- Resulting Form [19]: Amorphous
- Sol. [19]: >114 mg/mL
- Sol. (solvent 2-Methy-1-propanol, ambient temperature): 12.2 mg/mL
- Resulting Form [20]: Solvate(1:1)
- Sol. [20]: 12.9 mg/mL
- Sol. (solvent 3-Methyl-1-butanol, ambient temperature): 9.7 mg/mL
- Resulting Form [21]: Solvate
- Sol. [21]: 16.3 mg/mL
- Sol. (solvent Acetonitrile, ambient temperature): 1.0 mg/mL
- Sol. (solvent Anisole, ambient temperature): 0.7 mg/mL
- Sol. (solvent Butyl acetate, ambient temperature): 8.1 mg/mL
- Sol. (solvent Chlorobenzene, ambient temperature): 0.4 mg/mL
- Sol. (solvent Chloroform, ambient temperature): 3.8 mg/mL
- Sol. (solvent Cumene, ambient temperature): 0.3 mg/mL
- Sol. [6]: <0.1 mg/mL
- Sol. (solvent Dichloromethane, ambient temperature): 0.9 mg/mL
- Resulting Form [22]: No signal
- Sol. [22]: >113 mg/mL
- Resulting Form [23]: No signal
- Sol. [23]: 35.5 mg/mL
- Sol. (solvent Ethyl acetate, ambient temperature): 11.6 mg/mL
- Sol. (solvent Ethyl ether, ambient temperature): 3.5 mg/mL
- Sol. (solvent Ethyl formate, ambient temperature): 8.1 mg/mL
- Sol. [8]: 10.4 mg/mL
- Sol. (solvent Formamide, ambient temperature): 7.0 mg/mL
- Resulting Form [24]: Amorphous
- Sol. [24]: >89.4 mg/mL
- Sol. (solvent Heptane, ambient temperature): <1.5 mg/mL
- Sol. [10]: <0.1 mg/mL
- Sol. (solvent Isobutyl acetate, ambient temperature): 4.4 mg/mL
- Sol. (solvent Isopropyl acetate, ambient temperature): 6.2 mg/mL
- Resulting Form [11]: Solvate
- Sol. [11]: 25.5 mg/mL
- Resulting Form [25]: Solvate
- Sol. [25]: 9.4 mg/mL
- Resulting Form [26]: Solvate(1:1)
- Sol. [26]: 34.8 mg/mL
- Sol. (solvent Methylbutyl ketone, ambient temperature): 20.0 mg/mL
- Sol. [12]: <0.1 mg/mL
- Resulting Form [27]: Amorphous
- Sol. [27]: 27.3 mg/mL
- Resulting Form [28]: Solvate
- Sol. [28]: >150 mg/mL
- Resulting Form [29]: Solvate
- Sol. [29]: 39.2 mg/mL
- Sol. (solvent N-Methylpyrrolidinone, ambient temperature): >149 mg/mL
- Sol. (solvent Nitromethane, ambient temperature): 0.3 mg/mL
- Sol. (solvent Pentane, ambient temperature): <0.3 mg/mL
- Sol. (solvent Propyl acetate, ambient temperature): 7.5 mg/mL
- Resulting Form [30]: Solvate(1:1)
- Sol. [30]: 61.2 mg/mL
- Sol. [13]: <0.1 mg/mL
- Sol. (solvent Toluene, ambient temperature): 0.3 mg/mL
- Resulting Form (solvent Water-IPA 1:1, ambient temperature): Solvate
- Resulting Form (solvent Water-MeOH 1:1, ambient temperature): Solvate
- Resulting Form (solvent Water-MeOH 1:3, ambient temperature): Solvate
- Sol. (solvent acetic acid, ambient temperature): 42.8 mg/mL
- stability in solvent systems (solvent systems listed in b344 (acetonitrile to water-acetonitrile)): stable
- Resulting Form [31]: Amorphous
- Sol. [31]: 10.4 mg/mL
- Resulting Form [32]: Solvate
- Sol. [32]: 0.3 mg/mL
- water activity where the hydrate form was observed [3]: greater than 0.6
- solubility thermodynamic at 2 weeks [1]: < 100 µg/mL
